The values below come from US5948782A, “Pharmaceutical composition containing quinoline and quinazoline derivatives and novel compounds therefor” (Takeda Chemical, priority 1992, dated 1999).

Data set [1] has as its system mice. The data set is described as follows: Oral toxicity in mice. Type of data set: in vivo. To be noted: 300 mg/kg administered orally to mice. On the procedure: The compounds of the present invention have low toxicity. For example, when 300 mg/kg of the compounds prepared in Examples 36, 45, 47, 54 and 64 were administered orally to mice, no mice died. Therefore, the compounds of the present invention are useful as an anti-inflammatory agent, particularly an agent for treating arthritis producing inflammatory symptoms, in humans and other mammals.

The test system of data set [2] is Rat Carrageenin Paw Edema. The experiment in a line: Rat Carrageenin Paw Edema Inhibitory Activity. The data set is classed as in vivo. To be noted: Jcl:SD rats, 50 mg/kg orally, 3 hours after carrageenin. On the procedure: Rat Carrageenin Paw Edema Inhibitory Activity
The volume of a planter part of a right hind leg of Jcl:SD rats (male, 6 weeks old) was measured, and then suspension of a test drug (50 mg/kg) in 5% acacia was administered orally. Then water was administered additionally so that the total amount of administered liquid became 5 ml/rat. After 1 hour, a suspension (0.05 ml) containing 1% carrageenin in physiological saline was injected intradermally into the plantar to induce swelling [Winter, C. A. et al; Proc. Soc. Exp. Biol. Med., 111, 544 (1962)]. The volume of the right hind leg was measured again 3 hours after the carrageenin injection, and swelling inhibitory rate was calculated from the difference in the volumes before and after the injection.

In data set [3] the test system is Antigen-responsive T cell. The data set is described as follows: Antigen-Responsive T Cell Growth Inhibitory Activity (PPD-stimulated 3H-Tdr incorporation). To be noted: PPD 2 μg/ml, Lewis rat T cells, read-out: Antigen-responsive T cell growth inhibitory rate (%). Type of data set: cell-based, Lewis rats. The method, then: Antigen-Responsive T Cell Growth Inhibitory Activity
According to the method of Test Example 1, adjuvant arthritis was induced in Lewis rats (male, 7 weeks old). After 14 days, lymphonodi inguinales were excised. Then, a single-cell suspension was prepared by using RPMI-1640 medium containing 5% fetal bovine serum and then incubated at 37° C. for 1 hour in a nylon wool column. The cells were eluted from the column with the same medium. The non-adsorptive cell-fraction was used as T cells.
On the other hand, spleen cells were taken out from unsensitized Lewis rats (male, 8 to 9 weeks old) and irradiated with soft X-rays (20,000 R). To the spleen cells (1×10^5 cells/well) were added the above T cells (5×10^5 cells/well), PPD (Purified Protein Derivatives; final concentration: 2 μg/ml) and 2% Lewis rat serum (treated at 56° C. for 30 minutes). The mixture was incubated at 37° C. for 72 hours in a 5% carbonic acid incubator. Further, ^3 H-Tdr (0.5 μCi/well) was added followed by incubation for 24 hours. The cells were recovered, and the radioactivity of ^3 H-Tdr incorporated into the cells was determined. The test drug was added to the cell suspension just before the addition of PPD, and effects on incorporation of ^3 H-Tdr into the cells were observed.

For data set [4], the system named is mouse phenylquinone writhing. The data set is described as follows: Analgesic Activity in Mice (phenylquinone writhing model). Type of data set: in vivo. To be noted: Slc:ICR mice, 50 mg/kg orally, 20 minutes. The method, then:
Analgesic Activity in Mice
A drug (50 mg/kg) suspended in 5% acacia was administered orally to Slc:ICR mice (male, 4 weeks old). After 30 minutes, a 0.02% phenylquinone solution (0.1 ml/[…]) in 5% ethanol was administered intraperitoneally. Writhing and stretching reactions for 20 minutes after the injection were calculated for each mouse to evaluate analgesic activity of the test drug [Siegmund, E. et al.; Proc. Soc. Exp. Biol. Med., 95, 729 (1957)].
On the technique in general: Writhing tests count abdominal constrictions after an irritant is injected.

Data set [5] concerns IL-1β. The data set is described as follows: Anti-IL-1 activity (extracellular substrates of rat cartilage cells). Type of data set: cell-based. The following applies: 72 h, IL-1β 0.2 ng/ml, 3 days, read-out: IL-1 inhibitory activity (%). On the procedure:
Rat cartilage cells were prepared according to the known method [Fujio Suzuki et al., Sin Seikagaku Jikken Kohza, 18, p.871-875 (1990)] and cultivated in Dulbecco's Medium containing 10% fetal bovine serum. After 8 days, various concentrations of a test drug and IL-1β (0.2 ng/ml) were added, and the cells were cultivated for additional 3 days. The amount of extracellular substrates thus produced was determined.
Although IL-1β inhibits the synthesis of extracellular substrates of cartilage cells, addition of the drug inhibits the IL-1 activity and the amount of extracellular substrates synthesized was recovered.

`CCOC(=O)c1c(CSc2nc3ccc(F)cc3[nH]2)nc2cc(OC)c(OC)cc2c1-c1ccc(OC)c(OC)c1` [Example 54, ethyl 6,7-dimethoxy-4-(3,4-dimethoxyphenyl)-2-[(5-fluorobenzimidazol-2-yl)thiomethyl]quinoline-3-carboxylate]: the mortality result in data set [1] is reported as “no mice died”. Further, the “Swelling inhibitory rate (%)” value in data set [2] is listed as 21%.
As for `CCOC(=O)c1c(CSc2nc3ccccc3s2)nc2cc(OC)c(OC)cc2c1-c1ccc(OC)c(OC)c1` [Example 60, ethyl 6,7-dimethoxy-4-(3,4-dimethoxyphenyl)-2-[(benzothiazol-2-yl)thiomethyl]quinoline-3-carboxylate], in data set [3], the inhibition at 1 µM turned out to be 59% and the inhibition at 10 µM is 91%. Further, in data set [2], the “Swelling inhibitory rate (%)” value was found to be 31%.
`CCOC(=O)c1c(CSc2nc3ccccc3c(=O)[nH]2)nc2cc(OC)c(OC)cc2c1-c1ccc(OC)c(OC)c1` [Example 64, ethyl 6,7-dimethoxy-4-(3,4-dimethoxyphenyl)-2-[(3,4-dihydro-4-oxoquinazolin-2-yl)thiomethyl]quinoline-3-carboxylate]: the “Inhibitory rate (%)” value in data set [4] is reported as 27%. Moreover, the results for the inhibition at 1 µM in data set [3] and in data set [5] (1 μM) were 53% and 23%, respectively. Moreover, the inhibition at 10 µM was found to be 78% in data set [3] and 50% in data set [5] (10 μM). Moreover, the mortality entry in data set [1] is on record as “no mice died”. Also, in data set [2], the “Swelling inhibitory rate (%)” value was determined as 36%.
